This is an account of results in PMC12675387, “Receptor interaction profiles of 4-alkoxy-2,6-dimethoxyphenethylamines (Ψ derivatives) and related amphetamines” (Frontiers in Pharmacology, 2025).

For one assay, the target named is T1, human 5-HT2B receptor (Homo sapiens, UniProt P41595).
T1 construct: expressed in transfected cells; host or cells: HEK 293 cells
Nature of the assay: Activation potency and efficacy at the 5-HT2B receptor (Fluo-4 calcium, HEK 293 cells). In kind it is cell-based. The conditions noted are these: for Emax: HEK293, relative to 5-HT (100%), read-out: h5-HT2B activation efficacy Emax ± SD. As for the experimental part:
The activation potency and efficacy at the 5-HT2B receptor were determined as previously described by [Luethi et al. (2018)]. In summary, HEK 293 cells stably transfected with the human 5-HT2B receptor were seeded in poly-D-lysine-coated 96 well plates at a density of 50,000 cells per well overnight at 37 °C in high glucose Dulbecco’s modified Eagle’s medium (DMEM; Invitrogen, Zug, Switzerland) supplemented with 10% fetal calf serum (non-dialyzed and heat-inactivated), 250 mg/L Geneticin, and 100 U/mL penicillin, and 100 μg/mL streptomycin (Gibco). The growth medium was removed by snap inversion and the cells were exposed to 100 μL calcium indication Fluo-4-solution (Molecular Probes, Eugene, OR, United States) for 45 min at 31 °C. Thereafter, the Fluo-4-solution was removed once again by snap inversion and was replaced with fresh 100 μL Fluo-4-solution. Next, the cells were washed with HBSS and 20 mM HEPES using the EMBLA cell washer and then exposed to the assay buffer (100 μL per well). Afterwards, 25 μL of test compounds diluted in assay buffer were added to the plate online. Dose–response curves were determined using nonlinear regression and EC50 values were calculated. The activation efficacy was calculated relative to the 5-HT activity (defined as 100%).

The target of the next assay is T2, human TAAR1 (Homo sapiens, UniProt Q96RJ0).
T2 construct: expressed in transfected cells; host or cells: HEK 293 cells
T2 sequence (Q96RJ0 1-339): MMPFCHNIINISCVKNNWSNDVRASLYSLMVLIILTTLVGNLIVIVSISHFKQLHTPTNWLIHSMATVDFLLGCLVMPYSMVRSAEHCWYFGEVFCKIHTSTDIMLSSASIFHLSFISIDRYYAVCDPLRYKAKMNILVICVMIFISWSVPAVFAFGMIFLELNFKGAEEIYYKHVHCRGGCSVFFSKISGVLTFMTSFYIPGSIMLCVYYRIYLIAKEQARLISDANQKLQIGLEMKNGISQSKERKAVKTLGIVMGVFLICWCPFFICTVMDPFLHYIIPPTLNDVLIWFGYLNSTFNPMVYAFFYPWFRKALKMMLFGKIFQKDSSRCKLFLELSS
Nature of the assay: Activation potency at human TAAR1 (cAMP assay, HEK 293 cells). The assay is classed as cell-based. The protocol:
The activation potency at the human TAAR1 was determined as previously described by [Luethi et al. (2018)]. In summary, recombinant HEK 293 cells stably transfected with the human TAAR1 were grown in culture flasks composed of 30 mL high glucose DMEM with 10% heat inactivated fetal calf serum, […] Geneticin, and […] hygromycin B at 37 °C and 5% CO2. The cells were grown to 80%–90% confluency before collection. The cells were washed with phosphate-buffer saline (PBS) and 5 mL of trypsin/EDTA solution were added for 5 min at 37 °C to detach the cells from the flask. Then, 45 mL of fresh medium were added to the flask and the total mixture was put into a falcon tube, which was centrifuged for 3 min at 900 rpm at room temperature. The supernatant was aspirated, and the remaining cell pellet was resuspended in fresh medium to a concentration of 5 × 10^5 cells per mL. Next, 100 μL of the cell mixture was transferred to a 96 well plate (BIOCOAT 6640, Becton Dickinson, Allschwil, Switzerland) and incubated for 20 h at 37 °C. For the cAMP assay, the medium was removed and replaced with 50 μL PBS lacking calcium or magnesium ions. The PBS was extracted via snap inversion and the plate was gently tapped on tissue to remove any remaining PBS solution. The plate was then incubated with Krebs-Ringer Bicarbonate buffer (90 μL/well; KRB, Sigma-Aldrich) containing 1 mM IBMX for 1 h at 37 °C and 5% CO2/95% air. Test compounds were investigated in duplicate at various concentrations ranging from 300 pM to 30 μM. A cAMP standard curve (concentration range of 0.13 nM–10 μM) was included on each 96 well plate. Additionally, a reference plate was used containing RO5256390, β-phenylethylamine and p-tyramine. Cells were incubated with either 30 μL of compound solution, β-phenylethylamine (which represented the maximal response) or a basal control in PBS (supplemented with 1 mM IBMX) for 40 min at 37 °C. Thereafter, the cells were incubated with 50 μL of 3× detection mix solution (consisting of Ru-cAMP Alexa700 anti-cAMP antibody and lysis buffer) for 40 min at 37 °C, while covered with black lids and under forceful shaking. The fluorescence (456 nm excitation wavelength; 630 and 700 nm emission wavelengths) was measured using a NanoScan reader (Innovate Optische Messtechnik, Berlin, Germany) and the FRET signal was calculated using the following equation: FRET (700 nm) – P × FRET (630 nm). P was equal to Ru (700 nm)/Ru (630 nm).

The conditions of assay [1]: cited from earlier work.
A further assay has as its target T3, hα2A adrenergic receptor (Homo sapiens, UniProt P08913).
T3 sequence (P08913 1-465): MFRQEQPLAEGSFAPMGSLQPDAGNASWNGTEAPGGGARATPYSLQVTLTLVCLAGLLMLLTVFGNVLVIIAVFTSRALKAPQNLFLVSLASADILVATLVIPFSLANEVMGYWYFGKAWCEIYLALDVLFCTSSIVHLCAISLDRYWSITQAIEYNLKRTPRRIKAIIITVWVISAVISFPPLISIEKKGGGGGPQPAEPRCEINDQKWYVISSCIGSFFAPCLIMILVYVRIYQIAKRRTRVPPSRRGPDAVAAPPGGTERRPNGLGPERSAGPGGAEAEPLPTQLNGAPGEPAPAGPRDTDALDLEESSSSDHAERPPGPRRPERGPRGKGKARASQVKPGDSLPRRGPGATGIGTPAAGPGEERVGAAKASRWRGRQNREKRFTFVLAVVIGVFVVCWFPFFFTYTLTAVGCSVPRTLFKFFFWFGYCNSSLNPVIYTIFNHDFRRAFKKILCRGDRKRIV
The assay is described as follows: Radioligand binding, α2A adrenergic receptor ([3H]rauwolscine).

[2] abbreviates: anecdotal, ref Shulgin and Shulgin, 1991.

T1 sequence (P41595 whole entry): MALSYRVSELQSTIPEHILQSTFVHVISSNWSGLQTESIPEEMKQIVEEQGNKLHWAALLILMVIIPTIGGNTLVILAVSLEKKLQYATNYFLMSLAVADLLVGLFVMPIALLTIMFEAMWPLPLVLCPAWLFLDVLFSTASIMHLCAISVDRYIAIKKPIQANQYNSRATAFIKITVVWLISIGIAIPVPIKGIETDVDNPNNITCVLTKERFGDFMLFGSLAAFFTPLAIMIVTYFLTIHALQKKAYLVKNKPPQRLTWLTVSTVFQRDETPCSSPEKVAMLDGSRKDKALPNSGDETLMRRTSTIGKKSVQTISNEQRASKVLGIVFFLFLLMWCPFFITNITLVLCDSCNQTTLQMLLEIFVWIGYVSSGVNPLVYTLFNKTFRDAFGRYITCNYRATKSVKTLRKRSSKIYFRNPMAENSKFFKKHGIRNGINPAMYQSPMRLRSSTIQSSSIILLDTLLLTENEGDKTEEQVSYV

As usually defined, the EC50 is the concentration that produces a half-maximal response. The Emax is the maximal effect, on the per cent scale that the assay sets. By Ki is commonly meant a measure of affinity in units of concentration, obtained from inhibition or displacement. For the compound `COc1cc(OC)c(CC(C)N)c(OC)c1` (centres unmarked) [TMA-6, 2,4,6-trimethoxyamphetamine], at human 5-HT2B receptor, the EC50 was 150 ± 20 nM and the Emax was determined as 59 ± 3%. The compound also showed an EC50 at human TAAR1 greater than 30000 nM. Also, in assay [1] (setting [2]), the “duration of effects in humans” value is 12 to 16 h and the “psychoactive dose in humans” value is 25 to 50 mg. In addition, on hα2A adrenergic receptor, the Ki came to 3100 nM.
For the compound `COc1cc(OC)c(CCN)c(OC)c1` [Ψ-2C-O-1, 2,4,6-trimethoxyphenethylamine], the EC50 at human 5-HT2B receptor was found to be 330 ± 250 nM; on human TAAR1, 2300 nM. The Emax at human 5-HT2B receptor came to 22 ± 8%. For the same compound, the activity in humans result in assay [1] (doses up to 300 mg) was “inactive”. This compound also returned a Ki on hα2A adrenergic receptor of 780 ± 70 nM.
On to `CCOc1cc(OC)c(CCN)c(OC)c1` [Ψ-2C-O-2, 2,6-dimethoxy-4-ethoxyphenethylamine], for which, at human 5-HT2B receptor, the EC50 was 2100 nM and the Emax turned out to be 27 ± 8%. The EC50 on human TAAR1 is 230 ± 170 nM. Also, the Ki on hα2A adrenergic receptor turned out to be 670 ± 60 nM.
With `C=C(C)COc1cc(OC)c(CCN)c(OC)c1` [Ψ-2C-O-3, 2,6-dimethoxy-4-methallyloxyphenethylamine], the EC50 on human 5-HT2B receptor worked out at 310 ± 240 nM; at human TAAR1 it was 100 ± 60 nM. The Emax at human 5-HT2B receptor stood at 17 ± 4%. At hα2A adrenergic receptor, the Ki amounted to 280 ± 30 nM.
Turning to `C=CCOc1cc(OC)c(CCN)c(OC)c1` [Ψ-2C-O-16, 4-allyloxy-2,6-dimethoxyphenethylamine], on human 5-HT2B receptor, the EC50 is 91 ± 31 nM and the Emax was 27 ± 8%. For the same compound, the EC50 at human TAAR1 was determined as 34 ± 15 nM. The compound also showed a Ki at hα2A adrenergic receptor of 310 ± 20 nM.
Regarding `COc1cc(OCCF)cc(OC)c1CCN` [Ψ-2C-O-21, 2,6-dimethoxy-4-(2-fluoroethoxy)phenethylamine], the EC50 at human 5-HT2B receptor is greater than 10000 nM; at human TAAR1, 80 ± 43 nM.
As to `COc1cc(OCC(F)F)cc(OC)c1CCN` [Ψ-2C-O-21.5, 4-(2,2-difluoroethoxy)-2,6-dimethoxyphenethylamine], the figures for the EC50 on human 5-HT2B receptor and at human TAAR1 were greater than 10000 nM and 41 ± 9 nM, respectively. Moreover, at hα2A adrenergic receptor, the Ki came to 1000 nM.
As for `COc1cc(OCC(F)(F)F)cc(OC)c1CCN` [Ψ-2C-O-22, 2,6-dimethoxy-4-(2,2,2-trifluoroethoxy)phenethylamine], the EC50 at human 5-HT2B receptor is greater than 10000 nM; at human TAAR1, 47 ± 22 nM. At hα2A adrenergic receptor, this compound yielded an inhibition constant (Ki) of 1500 nM.
As to `COc1cc(OCc2ccccc2)cc(OC)c1CCN` [Ψ-2C-O-27, 4-benzyloxy-2,6-dimethoxyphenethylamine], the values for the EC50 at human 5-HT2B receptor and on human TAAR1 were greater than 10000 nM and 3000 nM, respectively. The Ki at hα2A adrenergic receptor is 410 ± 20 nM.
Consider `COc1cc(OC(F)F)cc(OC)c1CCN` [Ψ-2C-O-35, 4-(2,2-difluoromethoxy)-2,6-dimethoxyphenethylamine], for which, at human 5-HT2B receptor, the half-maximal effective concentration (EC50) came to 300 ± 230 nM and the Emax stood at 20 ± 13%. The EC50 on human TAAR1 is greater than 30000 nM. For the same compound, the “dose with some psychoactivity in humans” value in assay [1] (initial doses, anecdotal, ref Trachsel et al., 2013) is 17 mg. The inhibition constant Ki on hα2A adrenergic receptor was 450 ± 70 nM.
With `COc1cc(OC(F)F)cc(OC)c1CC(C)N` (centres unmarked) [Ψ-DODFMO, 4-(2,2-difluoromethoxy)-2,6-dimethoxyamphetamine], on human 5-HT2B receptor, the EC50 was determined as 160 ± 50 nM and the Emax turned out to be 58 ± 23%. Moreover, on human TAAR1, the EC50 was greater than 30000 nM. In addition, the affinity on hα2A adrenergic receptor corresponds to a Ki of 2300 nM.
Consider `C=CCOc1cc(OC)c(CC(C)N)c(OC)c1` (centres unmarked) [Ψ-MALM, 4-allyloxy-2,6-dimethoxyamphetamine], for which the EC50 at human 5-HT2B receptor was 55 ± 24 nM; on human TAAR1, greater than 30000 nM. Further, on human 5-HT2B receptor, the Emax turned out to be 69 ± 19%. On hα2A adrenergic receptor, the affinity corresponds to a Ki of 1800 nM.
As to `COc1cc(OCc2ccccc2)cc(OC)c1CC(C)N` (centres unmarked) [Ψ-MBnM, 4-benzyloxy-2,6-dimethoxyamphetamine], the EC50 at human 5-HT2B receptor was greater than 10000 nM; at human TAAR1, greater than 30000 nM. On hα2A adrenergic receptor, affinity was put at a Ki of 2000 nM.
Taken in the same sequence, the figures for `COc1cc(OCC(F)F)cc(OC)c1CC(C)N` (centres unmarked) [Ψ-MDFEM, 4-(2,2-difluoroethoxy)-2,6-dimethoxyamphetamine] were greater than 10000 nM, 850 ± 500 nM and 3300 nM.
Consider `CCOc1cc(OC)c(CC(C)N)c(OC)c1` (centres unmarked) [Ψ-MEM, 2,6-dimethoxy-4-ethoxyamphetamine], for which, on human 5-HT2B receptor, the EC50 was 260 ± 160 nM and the Emax was 28 ± 11%. Also, at human 5-HT2B receptor (Ψ-MEM vs Ψ-2C-O-2), the “fold difference in 5-HT2B activation potency, amphetamine vs phenethylamine counterpart” value is on record as 8 fold. In addition, the midpoint of the response on human TAAR1, the EC50, lay at 2200 nM. The Ki at hα2A adrenergic receptor was determined as 2200 nM.
As to `COc1cc(OCCF)cc(OC)c1CC(C)N` (centres unmarked) [Ψ-MFEM, 2,6-dimethoxy-4-(2-fluoroethoxy)amphetamine], the EC50 was greater than 10000 nM on human 5-HT2B receptor and 1900 nM on human TAAR1. At hα2A adrenergic receptor, this compound displayed a Ki of 4100 nM.
For the compound `C=C(C)COc1cc(OC)c(CC(C)N)c(OC)c1` (centres unmarked) [Ψ-MMALM, 2,6-dimethoxy-4-methallyloxyamphetamine], at human 5-HT2B receptor, the EC50 was determined as 93 ± 26 nM and the Emax is 33 ± 11%. This compound had an EC50 at human TAAR1 of 2500 nM. In addition, affinity on hα2A adrenergic receptor was put at a Ki of 1400 nM.
`COc1cc(OCC(F)(F)F)cc(OC)c1CC(C)N` (centres unmarked) [Ψ-MTFEM, 2,6-dimethoxy-4-(2,2,2-trifluoroethoxy)amphetamine]: the EC50 at human 5-HT2B receptor is greater than 10000 nM; at human TAAR1 it was 1100 nM. On hα2A adrenergic receptor, this compound yielded a Ki of 3800 nM.
